# From patent US20100119620A1, “SUPPRESSING MICROBIAL GROWTH IN PULP AND PAPER” (priority 2006, published 2010)
# Tests used:
# [1] = system: bacteria native to the process water sample; assay: Bacterial density in paper process water (coated groundwood mill, pH 7.9) dosed with halogen, with re-challenge; format: cell-based
# Method: The unstabilized bleach solution was 3% as Cl2 in water. To prepare the stabilized chlorine solution we blended 5.0 mL NaOCl (3% as Cl2 in water) with 5.0 mL of an aqueous solution of urea and sodium hydroxide (0.5M urea in 5% NaOH). We then blended 5.0 mL NaOCl (3% as Cl2 in water) with 5.0 mL of an aqueous solution of urea and sodium hydroxide (0.25M urea in 5% NaOH). This yielded a 2:1 molar ratio of chlorine to urea.
# Paper process water was collected from a mill in the Northeastern US producing coated groundwood printing and writing grades (pH 7.9). Samples were dosed with halogen and plated after one and four hours. Following the four-hour sampling, process water was challenged with 1% (volume/volume) of untreated process water and samples were plated again after 24 hours.
# [2] = system: Sphaerotilus natans (ATCC 1529); assay: Mean Biocidal Concentration for 100% kill of filamentous test isolate in buffered water (pH 7.2); format: cell-based
# Method: Two biocide solutions were evaluated and included NaOCl and NaOCl mixed with urea at a 1:1 molar ratio. The unstabilized NaOCl solution was 3% as Cl2 in water. To prepare the stabilized chlorine solution we blended 5.0 mL NaOCl (3% as Cl2 in water) with 5.0 mL of an aqueous solution of urea and sodium hydroxide (0.5M urea in 5% NaOH). In the case of the stabilized chlorine the NaOCl and urea were mixed prior to introduction to buffered water (pH 7.2) inoculated with approximately 1×10^5 bacterial filaments/mL of the filamentous test isolate. The filamentous test isolate used in this evaluation was Sphaerotilus natans (ATCC 1529). The Mean Biocidal Concentration was identified as the test chlorine concentration in ppm of total chlorine (Cl2) required for 100% kill of the filamentous test isolate.
# [3] = Halogen residuals (total and free) measured using DPD reagent after blending NaOCl with urea/NaOH; format: physicochemical
# Method: We blended 5.0 mL NaOCl (3% as Cl2 in water) with 5.0 mL of an aqueous solution of urea and sodium hydroxide (0.5M urea in 5% NaOH). To achieve a 2:1 molar ratio of chlorine to urea we blended 5.0 mL NaOCl (3% as Cl2 in water) with 5.0 mL of an aqueous solution of urea and sodium hydroxide (0.25M urea in 5% NaOH). Halogen residuals were measured using DPD reagent, and were recorded 3 minutes after mixing with the reagent.
# Because of the higher yield, less halogen is required to achieve the desired anti-microbial effect under these test conditions. […] The advantages of increased yield and improved anti-microbial activity are shown in Example 2.
# [4] = pH after mixing 9.8, recorded 3 minutes after mixing with DPD reagent
smiles,measurement,setting,value
"[Na+].[O-]Cl [NaOC1, sodium hypochlorite]",Bacterial Density,"[1]; 2.5 ppm Total C12, contact time 1 hour",2 log 10 CFU/mL
same,Bacterial Density,"[1]; 2.5 ppm Total C12, contact time 4 hours",3.5 log 10 CFU/mL
same,Bacterial Density,"[1]; 2.5 ppm Total C12, contact time 24 hours, after challenge with 1% (v/v) untreated process water at 4 hours",7.4 log 10 CFU/mL
same,Bacterial Density,"[1]; 10 ppm Total C12, contact time 1 hour",2 log 10 CFU/mL
same,Bacterial Density,"[1]; 10 ppm Total C12, contact time 4 hours",2 log 10 CFU/mL
same,Bacterial Density,"[1]; 10 ppm Total C12, contact time 24 hours, after challenge with 1% (v/v) untreated process water at 4 hours",7.3 log 10 CFU/mL
same,Mean Biocidal Concentration S. natans,[2]; contact time 0.5 hours,5 ppm Total C12
same,Mean Biocidal Concentration S. natans,[2]; contact time 1 hour,5 ppm Total C12
same,Mean Biocidal Concentration S. natans,[2]; contact time 3.5 hours,5 ppm Total C12
same,Mean Biocidal Concentration S. natans,[2]; contact time 9 hours,5 ppm Total C12
same,Free Halogen (% Yield),[3]; [4],100 % Yield
same,Total Halogen (% Yield),[3]; [4],100 % Yield
same,Free Halogen (% Yield),[3]; pH after mixing 13.0,100 % Yield
same,Total Halogen (% Yield),[3]; pH after mixing 13.0,100 % Yield
same,Free Halogen (% Yield),[3]; pH after mixing 13.5,100 % Yield
same,Total Halogen (% Yield),[3]; pH after mixing 13.5,100 % Yield
